Several values for one entry are separate records, joined by “and”; a condition that tells them apart may be missing. Identical values can stand only once.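 These data come from cells grown in 96-well plates and exposed to compound for 48 hours at five concentrations. At the GI50, growth is halved. The concentration for full growth arrest is given as TGI.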
Experiments:
Assay in all cases: NCI tumour cell line growth inhibition, 48 h
HOP-18 NSCLC = test system: HOP-18 NSCLC
SNB-78 CNS = test system: SNB-78 CNS
DMS 114 small cell lung = test system: DMS 114 small cell lung
DLD-1 colon = test system: DLD-1 colon
DMS 273 small cell lung = test system: DMS 273 small cell lung
MDA-N = test system: MDA-N
XF 498 CNS = test system: XF 498 CNS
KM20L2 colon = test system: KM20L2 colon
RXF-631 renal = test system: RXF-631 renal
P388 leukemia = test system: P388 leukemia
P388/ADR leukemia = test system: P388/ADR leukemia
SN12K1 renal = test system: SN12K1 renal

| Compound | TGI (HOP-18 NSCLC) [µM] | TGI (SNB-78 CNS) | TGI (DMS 114 small cell lung) [µM] | TGI (DLD-1 colon) [µM] | TGI (DMS 273 small cell lung) [µM] | TGI (XF 498 CNS) [µM] | TGI (KM20L2 colon) [µM] | TGI (RXF-631 renal) | other results |
| --- | --- | --- | --- | --- | --- | --- | --- | --- | --- |
| CC(=O)[O-].O=[N+]([O-])c1ccc([O-])c(C=NCCN=Cc2cc([N+](=O)[O-])ccc2[O-])c1.[Mn+3] | > 100 | > 100 µM | > 100 | > 100 | > 100 |  |  |  | GI50 (HOP-18 NSCLC): > 100 µM; GI50 (SNB-78 CNS): > 100 µM; GI50 (DMS 114 small cell lung): 98 µM; GI50 (DLD-1 colon): > 100 µM; GI50 (DMS 273 small cell lung): > 100 µM |
| Nc1ccc2c(SCC(=O)Nc3ccccc3-c3ccccc3NC(=O)CSc3c4ccccc4nc4cc(N)ccc34)c3ccccc3nc2c1 | 68.8 | > 100 µM | 56.2 | 38.4 | > 100 | 52.8 | > 93.5 | > 100 µM | TGI (MDA-N): > 69.5 µM |
| Cc1cc(C)c2nccc(NCCCN(C)C)c2c1[N+](=O)[O-] |  |  |  |  |  |  |  |  | TGI (MDA-N): > 100 µM |
| C=C1c2ccccc2N(S(=O)(=O)c2ccc(C)cc2)C12CCCCC2 | > 100 |  | > 100 | > 100 | > 100 | > 100 | > 100 |  |  |
| O=C1[C@H]2ON(c3ccccc3)C(c3cccc([N+](=O)[O-])c3)[C@H]2C(=O)N1c1ccc(Cc2ccc(N3C(=O)[C@@H]4ON(c5ccccc5)C(c5cccc([N+](=O)[O-])c5)[C@@H]4C3=O)cc2)cc1 (stereo not given in full) | > 100 | > 100 µM | > 100 | > 100 | > 100 |  | > 100 |  |  |
| O=c1ncccn1C1OC(CO)C(O)C1F (stereo not given) | > 100 | > 100 µM | > 100 | > 100 | > 100 | > 100 | > 100 | > 100 µM | GI50 (DLD-1 colon): > 100 µM |
| CC12O[Te]34OC1(C)C(C)(O3)C2(C)O4 | 32 | 65.9 µM | 25.7 | 30.4 | 37.7 |  | 87.5 |  |  |
| O=C1OC(c2ccc(Cl)c3ccccc23)c2ccccc21 (stereo not given) | > 100 | > 100 µM | > 100 |  |  | > 100 | > 100 | > 100 µM |  |
| C=CCN(N=O)C(=O)ON1C(=O)CCC1=O | > 100 | > 100 µM | > 100 | > 100 | > 100 |  | > 100 | > 100 µM |  |
| O=C1Nc2ccc(Br)cc2C1=Nc1ccc(Cl)cc1 |  |  |  |  |  |  |  |  | TGI (MDA-N): 23.5 µM |
| CC1(C)Oc2ccccc2N2O[C@@H]3C(=O)N(c4ccccc4)C(=O)[C@@H]3C21c1ccccc1 (stereo not given in full) | 49.1 | 79.4 µM | 62.9 | 65.7 |  |  | > 100 |  |  |
| Cc1nnc(N=Nc2c(O)[nH]c3ccccc23)[nH]c1=O |  |  |  |  |  |  |  |  | TGI (MDA-N): > 100 µM |
| CCC1(Cl)C(=O)NC(=O)N(C2CC(O)C(CO)O2)C1N=[N+]=[N-] (stereo not given) |  | > 100 µM | > 100 | > 100 | > 100 | > 100 | > 100 | > 100 µM |  |
| Nc1nc(Cl)cc(NCCCCCCNc2cc(Cl)nc(N)n2)n1 | > 100 |  |  | > 100 | > 100 | 87 | > 100 | > 100 µM |  |
| CCOc1ccccc1NC(=O)CCC(=O)NN |  | > 100 µM |  | > 100 | > 100 | > 100 | > 100 | > 100 µM |  |
| O=c1/c(=C/c2ccc3c(c2)OCO3)sc2nnc(Cc3ccccc3)n12 | > 100 | > 100 µM | > 100 | > 100 | > 100 |  | > 100 |  |  |
| COc1cc(-c2nn3c(=O)n(-c4ccc(Cl)cc4)c(=O)nc3s2)cc(OC)c1OC | > 100 | 50 µM and > 100 µM |  | > 100 | > 100 |  | > 100 | 50 µM and > 100 µM | GI50 (SNB-78 CNS): 8.88 µM; GI50 (KM20L2 colon): > 50 µM; GI50 (DLD-1 colon): > 50 µM |
| BrC(Br)([P+](c1ccccc1)(c1ccccc1)c1ccccc1)[P+](c1ccccc1)(c1ccccc1)c1ccccc1 | > 100 | 90.1 µM | 30.3 | 40.6 | 32.6 |  | 86.2 |  |  |
| CC(C)(C)c1cc(C(=O)O)c(C(c2ccccc2)c2ccccc2C(=O)O)c(C(=O)O)c1 (stereo not given) | > 100 | > 100 µM | > 100 | > 100 | > 100 | > 100 | > 100 |  |  |

| Compound | TGI (HOP-18 NSCLC) [µM] | TGI (SNB-78 CNS) | TGI (DMS 114 small cell lung) [µM] | TGI (DLD-1 colon) [µM] | TGI (DMS 273 small cell lung) [µM] | TGI (XF 498 CNS) [µM] | TGI (KM20L2 colon) [µM] | TGI (RXF-631 renal) | other results |
| --- | --- | --- | --- | --- | --- | --- | --- | --- | --- |
| O=C(O)C(Cc1c[nH]c2ccccc12)N1C(=O)c2ccccc2C1=O (stereo not given) |  |  |  |  |  |  |  |  | TGI (MDA-N): > 100 µM |
| O=C1c2c(O)ccc(O)c2C(=O)c2c(NCCNCCO)ccc(NCCNCCO)c21 | 1.67 | 1.66 µM | 0.263 | 4.87 | 0.57 | 0.0879 | 8.09 |  | TGI (MDA-N): 1.48 µM and 1.66 µM; TGI (P388 leukemia): 0.0821 µM; TGI (P388/ADR leukemia): 6 µM; TGI (SN12K1 renal): 0.305 µM |
| O=C(NOC(=O)c1ccc([N+](=O)[O-])cc1)c1ccc(Cl)cc1 | 89.7 | 65.3 µM | > 100 | > 100 |  | > 100 | > 100 | > 100 µM |  |
| CN1C=C(C(N)=O)C2CC(O)[C@@](NC(=O)CS(N)(=O)=O)(C(=O)O)C2C1 (stereo not given in full) | > 100 | 8.68 µM | 7.38 | 52.7 | 9.75 | 3.21 | > 40.9 | 9.7 µM |  |
| COC(=O)Cc1cc(=O)oc2c1C(=O)CCC2 |  | > 100 µM | > 100 | > 100 | > 100 | > 100 | > 100 |  |  |
| COC(=O)C1=C(C(=O)OC)C(C(=O)OC)C(C(=O)OC)C(C(=O)OC)(C(=O)OC)C(C(=O)OC)=C1C(=O)OC (stereo not given) | 31 | 44 µM | 23.2 | 6.98 |  | 25.3 | 35.9 |  | TGI (MDA-N): 31.2 µM |
| CN1C(=O)CC2(C)c3cc(C=O)ccc3N(C)C12 (stereo not given) | > 100 | > 100 µM | > 100 | > 100 |  | > 100 | > 100 | > 100 µM |  |
| COC(=O)C1=C(C(=O)OC)N(C(C)C)[C@H]2C(C(=O)OC)=C(C(=O)OC)N(C(C)C)[C@@H]12 | > 100 | > 100 µM | > 100 | > 100 | > 100 | > 100 | > 100 | > 100 µM |  |
| O=C1Cc2ccccc2CCc2ccccc21 | > 100 | > 100 µM | > 100 | > 100 | > 100 |  | > 100 |  |  |
| CCCC/C=C1\CCC(CN2CCCC2)C1=O (stereo not given) |  | 57.2 µM | 31.8 | 12.8 | 34.3 | 29.6 | 28.7 | 32.4 µM |  |
| N=C(N)SCC(=O)O |  |  |  |  |  |  |  |  | TGI (MDA-N): > 100 µM |
| C(/C=C/N1CCCC1)=C\c1nc(N2CCCC2)c2ccccc2n1 | 30.3 | 43.6 µM | 33.2 | 37.1 | 34.2 |  | 51.7 | 41.3 µM |  |
| CCOC(=O)c1cc(C(=O)O)c(=O)n2c1[nH]c1ccccc12 | > 100 | > 100 µM | > 100 | > 100 | > 100 | > 100 | > 100 | > 100 µM |  |
| C/C(N=NC(=S)N1CCCCCC1)=C1\C=CC=CN1O | > 92.9 | > 100 µM | 3.45 | > 100 | 42.1 | > 100 | > 100 | > 100 µM | TGI (MDA-N): > 100 µM |
| C=C[C@@]1(C)CC(=O)[C@]2(O)[C@@]3(C)[C@@H](O)CCC(C)(C)[C@@H]3[C@H](O)[C@@H](OC(C)=O)[C@@]2(C)O1 |  |  |  |  |  |  |  |  | TGI (MDA-N): > 100 µM |
| C=C1C(=O)C23CC1CCC2C12CO[C@@]3(O)[C@@H](O)C1C(C)(C)C=CC2=O (stereo not given in full) | 2.2 | 2.23 µM |  | 2.22 | 1.3 | 1.42 | 4.39 | 2.33 µM | TGI (MDA-N): 7.71 µM |
| COc1cc2c3c(c1OC)/C(=N/OS(=O)(=O)c1ccc(C)cc1)CC3N(S(=O)(=O)c1ccc(C)cc1)CC2 (stereo not given) | > 100 | > 100 µM | > 100 | > 100 | > 100 | > 100 | > 100 | > 100 µM |  |
| c1cc2ccc1C1NCCCN1CCN1CCCNC1c1ccc(cc1)C1NCCCN1CCN1CCCNC21 (stereo not given) | > 100 |  | > 100 | > 100 | > 100 | > 100 | > 100 |  |  |
